Measurements published in patent US10800784B2, “Nitrogen-containing heterocyclic amide compound and pharmaceutical use thereof” (Japan Tobacco Inc., priority 2018, dated 2020).

What was measured:
human PDHK2 (hPDHK2) = human PDHK2 (hPDHK2) (Homo sapiens (Human), UniProt Q15119); assay: Inhibitory action of PDHK2 activity in vitro (residual PDH activity after PDHK reaction); assay type: biochemical; settings: for IC50: PDH/hPDHK2 complex solution, PDHK reaction at room temperature for 45 min, NADH absorbance at 340 nm, read-out: kPDK2 IC50
Procedure: (§1) The inhibitory action of PDHK activity was assessed indirectly by measuring the residual PDH activity after PDHK reaction in the presence of a test compound.
(Inhibitory Action of PDHK2 Activity)
In the case of human PDHK2 (hPDHK2, NCBI Reference Database Accession number NM_002611.4), modified hPDHK2 cDNA wherein FLAG-Tag sequence was added to the N terminus of hPDHK2 cDNA clone (pReceiver-M01/PDK2-GeneCopoeia) as the base was prepared by PCR and ligated to the NdeI/EcoRI site of pET-17b vector. The recombinant construct was transformed into Escherichia coli DH5a. The recombinant clones were identified, and plasmid DNA was isolated and subjected to the DNA sequence analysis. One clone which had the expected nucleic acid sequence was selected for expression work.
For expression of hPDHK2 activity, Escherichia coli strain BL21(DE3) cells were transformed with the pET17b vector containing modified hPDHK2 cDNA. The Escherichia coli were grown to an optical density 0.6 ([…]) at 30° C. Protein expression was induced by the addition of 500 μmol/L isopropyl-β-thiogalactopyranoside. The Escherichia coli were cultured at 20° C. for 17-18 hr and harvested by centrifugation. The harvested Escherichia coli was resuspended in a suspension buffer (20 mmol/L HEPES-NaOH, 500 mmol/L sodium chloride, 1% ethylene glycol, 0.1% pluronic F-68 (pH 8.0), cOmplete, EDTA-free (pH 8.0)), and disrupted by a microfluidizer. The precipitate was removed by centrifugation and the supernatant was added to DDDDK-tagged Protein PURIFICATION GEL. DDDDK-tagged Protein PURIFICATION GEL was washed with a washing buffer (20 mmol/L HEPES-NaOH, 500 mmol/L sodium chloride, 1% ethylene glycol, 0.1% pluronic F-68 (pH 8.0)) and the bound protein was eluted with elution buffer 1 (20 mmol/L HEPES-NaOH, 100 μg/mL peptide (amino acid sequence DYKDDDDK) (SEQ ID NO: 1), 500 mmol/L sodium chloride, 1% ethylene glycol, 0.1% pluronic F-68 (pH 8.0)). The eluted fractions containing FLAG-Tagged protein were pooled, concentrated by an ultrafiltration method, added to a gel filtration column (HiLoad 26/60 Superdex 200), and eluted with elution buffer 2 (20 mmol/L HEPES-NaOH, 150 mmol/L sodium chloride, 0.5 mmol/L ethylenediaminetetraacetic acid (EDTA), 1% ethylene glycol, 0.1% pluronic F-68 (pH 8.0)). The eluted fractions were pooled and preserved at −80° C.
0.025 U/mL PDH and 0.5 μg/mL hPDHK2 were mixed in an assay buffer (50 mmol/L 3-morpholinopropanesulfonic acid (pH 7.0), 20 mmol/L dipotassium hydrogen phosphate, 60 mmol/L potassium chloride, 2 mmol/L magnesium chloride, 0.4 mmol/L EDTA, 0.2% poloxamer, 2 mmol/L dithiothreitol), and the mixture was incubated at 4° C. overnight to obtain a PDH/hPDHK2 complex solution. In the assay buffer, 0.025 U/mL PDH was mixed and incubated at 4° C. overnight to prepare a PDH solution.
The test compounds were diluted with DMSO. To measure an inhibitory action of the test compound on the PDHK activity in the PDH/hPDHK2 complex solution, PDH/hPDHK2 complex solution (20 μL), test compound (1.5 μL) and 1.06 μmol/L ATP (diluted with assay buffer) (8.5 μL) were added to a 384 well microplate and PDHK reaction was performed at room temperature for 45 min (test compound well). DMSO (1.5 μL) was added to control wells instead of test compound. In addition, DMSO (1.5 μL) was added to blank wells instead of the test compound, and PDH solution was added instead of the PDH/hPDHK2 complex solution. To measure an inhibitory action of the test compound on the PDHK activity inherent in the PDH solution, a test compound was added and the PDH solution instead of the PDH/hPDHK2 complex solution was added to a blank+test compound well.
Then, 10 μL of substrates (5 mmol/L sodium pyruvate, 5 mmol/L Coenzyme A, 12 mmol/L NAD, 5 mmol/L thiamine pyrophosphate, diluted with assay buffer) were added. The mixture was incubated at room temperature for 90 min, and the residual PDH activity was measured. […]

human PDHK1 (hPDHK1) = human PDHK1 (hPDHK1) (Homo sapiens (Human), UniProt Q15118); assay: Inhibitory action of PDHK1 activity in vitro (residual PDH activity after PDHK reaction); assay type: biochemical; settings: for IC50: PDH/hPDHK1 complex solution, PDHK reaction at room temperature for 45 min, NADH absorbance at 340 nm, read-out: hPDK1 IC50; for inhibition at 0.003 µM: at 3 nmol/L, shown when IC50 value could not be calculated, read-out: hPDHK1 inhibitory rate at the lowest concentration of the test compound
Procedure: as §1
(Inhibitory Action of PDHK1 Activity)
In the case of human PDHK1 (hPDHK1, NCBI Reference Database Accession number NM_002610.3), a 1.3 kbp fragment encoding this protein was isolated from human liver cDNA by polymerase chain reaction (PCR). Modified hPDHK1 cDNA wherein FLAG-Tag sequence was added to the N terminus was prepared by PCR and ligated to the NdeI/EcoRI site of pET-17b vector (Merck MGaA, model number 69663-3). The recombinant construct was transformed into Escherichia coli DH5a (TOYOBO, model number DNA-903). The recombinant clones were identified, and plasmid DNA was isolated and subjected to the DNA sequence analysis. One clone which had the expected nucleic acid sequence was selected for expression work.
For expression of hPDHK1 activity, Escherichia coli strain BL21(DE3) cells (Merck KGaA, model number 69450-4) were transformed with the pET17b vector containing modified hPDHK1 cDNA. The Escherichia coli were grown to an optical density 0.6 ([…]) at 30° C. Protein expression was induced by the addition of 500 μmol/L isopropyl-β-thiogalactopyranoside. The Escherichia coli were cultured at 20° C. for 17-18 hr and harvested by centrifugation.
The harvested Escherichia coli was resuspended in a suspension buffer (20 mmol/L N-(2-hydroxyethyl)piperazine-N′-2-ethanesulfonic acid-sodium hydroxide (HEPES-NaOH), 500 mmol/L sodium chloride, 1% ethylene glycol, and 0.1% polyoxyethylene-polyoxypropylene block copolymer (Pluronic F-68), complete, EDTA-free (pH 8.0)) and disrupted by a microfluidizer M-110H (MIZUHO INDUSTRIAL CO., LTD.) or ultrasonication. The precipitate was removed by centrifugation and the supernatant was added to DDDDK-tagged Protein PURIFICATION GEL (MBL, model number 3329). DDDDK-tagged Protein PURIFICATION GEL was washed with a washing buffer (20 mmol/L HEPES-NaOH, 500 mmol/L sodium chloride, 1% ethylene glycol, 0.1% pluronic F-68 (pH 8.0)) and the bound protein was eluted with elution buffer 1 (20 mmol/L HEPES-NaOH, 100 μg/mL peptide (amino acid sequence DYKDDDDK) (SEQ ID NO: 1), 500 mmol/L sodium chloride, 1% ethylene glycol, 0.1% pluronic F-68 (pH 8.0)).
The eluted fractions containing FLAG-Tagged protein were pooled, concentrated by an ultrafiltration method, added to a gel filtration column (HiLoad 26/60 Superdex 200 (GE Healthcare, model number 17-1070-01)), and eluted with elution buffer 2 (20 mmol/L HEPES-NaOH, 150 mmol/L sodium chloride, 0.5 mmol/L ethylenediaminetetraacetic acid (EDTA), 1% ethylene glycol, 0.1% pluronic F-68 (pH 8.0)). The eluted fractions were pooled and preserved at −80° C.
0.025 U/mL PDH (porcine heart PDH complex, Sigma P7032) and 0.5 μg/mL hPDHK1 were mixed in an assay buffer (50 mmol/L 3-morpholinopropanesulfonic acid (pH 7.0), 20 mmol/L dipotassium hydrogen phosphate, 60 mmol/L potassium chloride, 2 mmol/L magnesium chloride, 0.4 mmol/L EDTA, 0.2% poloxamer, 2 mmol/L dithiothreitol), and the mixture was incubated at 4° C. overnight to obtain a PDH/hPDHK1 complex solution. In the assay buffer, 0.025 U/mL PDH was mixed and incubated at 4° C. overnight to prepare a PDH solution.
The test compounds were diluted with dimethyl sulfoxide (DMSO). To measure an inhibitory action of the test compound on the PDHK activity in the PDH/hPDHK1 complex solution, PDH/hPDHK1 complex solution (20 μL), test compound (1.5 μL) and 0.353 μmol/L ATP (diluted with assay buffer) (8.5 μL) were added to a 384 well microplate (Greiner Bio-One 781801) and PDHK reaction was performed at room temperature for 45 min (test compound well). DMSO (1.5 μL) was added to control wells instead of test compound. In addition, DMSO (1.5 μL) was added to blank wells instead of the test compound, and PDH solution was added instead of the PDH/hPDHK1 complex solution. […]

Chain of human PDHK1 (hPDHK1) (Q15118 29-436): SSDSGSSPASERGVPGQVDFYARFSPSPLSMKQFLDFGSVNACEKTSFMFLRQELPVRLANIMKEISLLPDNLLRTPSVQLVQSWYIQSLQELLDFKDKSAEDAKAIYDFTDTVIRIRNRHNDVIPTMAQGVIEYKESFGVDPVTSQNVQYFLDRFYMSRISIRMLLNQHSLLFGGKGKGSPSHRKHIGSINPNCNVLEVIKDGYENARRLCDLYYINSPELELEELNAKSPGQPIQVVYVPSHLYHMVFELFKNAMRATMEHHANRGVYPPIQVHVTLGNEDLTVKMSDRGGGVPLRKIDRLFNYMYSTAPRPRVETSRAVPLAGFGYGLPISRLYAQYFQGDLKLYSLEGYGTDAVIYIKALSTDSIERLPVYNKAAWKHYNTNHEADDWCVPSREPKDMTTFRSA

Row | IC50 (human PDHK2 (hPDHK2)) [nM] | IC50 (human PDHK1 (hPDHK1)) [nM] | hPDHK2 inhibitory rate at the lowest concentration of the test compound (human PDHK2 (hPDHK2); lowest concentration of the test compound in the assay (<3 nmol/L), shown when IC50 value could not be calculated) [%] | inhibition at 0.003 µM (human PDHK1 (hPDHK1)) [%] | Structure (SMILES)
1 | 7 | 6 | – | – | C[C@H]1CN(C(=O)c2cc(-c3ccc(F)cc3)nn2C)Cc2cnc([C@@](C)(O)C(F)(F)F)n21 [Example 16, (3-(4-fluorophenyl)-1-methyl-1H-pyrazol-5-yl) ((S)-5-methyl-3-((R)-1,1,1-trifluoro-2-hydroxypropan-2-yl)-5,6-dihydroimidazo[1,5-a]pyrazin-7(8H)-yl)methanone]
2 | 7 | 4 | – | – | C[C@H]1CN(C(=O)c2ccnc(-c3ccc(C#N)cc3)c2F)Cc2cnc([C@@](C)(O)C(F)(F)F)n21 [Example 78]
3 | 5 | 4 | – | – | C[C@H]1CN(C(=O)c2cc3n(n2)CCC3)Cc2onc([C@@](C)(O)C(F)(F)F)c21 [Example 100]
4 | 10 | 8 | – | – | C[C@H]1CN(C(=O)c2ccc3nn(C)cc3c2)Cc2cnc([C@@](C)(O)C(F)(F)F)n21 [Example 12]
5 | < 3 | < 3 | 57 | 68 | C[C@H]1CN(C(=O)c2cc(C3CC3)nn2C)Cc2cnc([C@@](C)(O)C(F)(F)F)n21 [Example 14]
6 | 12 | 6 | – | – | C[C@H]1CN(C(=O)c2cc(C3CC3)nn2C)Cc2nnc([C@@](C)(O)C(F)(F)F)n21 [Example 123]
7 | 13 | 10 | – | – | C[C@H]1CN(C(=O)c2cc(-c3ccc(F)cc3)n[nH]2)Cc2cnc([C@@](C)(O)C(F)(F)F)n21 [Example 34]
8 | 5 | 4 | – | – | C[C@H]1CN(C(=O)c2cc(-c3ccc(C#N)cc3F)nn2C)Cc2cnc([C@@](C)(O)C(F)(F)F)n21 [Example 50]
9 | 9 | 6 | – | – | C[C@H]1CN(C(=O)c2ccc(C#N)c(-c3ccc(F)cn3)c2)Cc2cnc([C@@](C)(O)C(F)(F)F)n21 [Example 77]
10 | 5 | 4 | – | – | C[C@H]1CN(C(=O)c2cc(C3CC3)n(C)n2)Cc2onc([C@@](C)(O)C(F)(F)F)c21 [Example 113]
11 | 4 | 3 | – | – | C[C@H]1CN(C(=O)c2ccnc(-c3ccc(F)cc3F)c2)Cc2cnc([C@@](C)(O)C(F)(F)F)n21 [Example 88]
12 | 7 | 5 | – | – | C[C@H]1CN(C(=O)c2ccc(F)c(-c3ccncc3F)c2)Cc2cnc([C@@](C)(O)C(F)(F)F)n21 [Example 82]
13 | 8 | 6 | – | – | C[C@H]1CN(C(=O)c2c(Cl)c(C3CC3)nn2C)Cc2cnc([C@@](C)(O)C(F)(F)F)n21 [Example 22]
14 | 6 | 4 | – | – | C[C@H]1CN(C(=O)c2cc(-c3ccc(Cl)cn3)nn2C)Cc2cnc([C@@](C)(O)C(F)(F)F)n21 [Example 66]
15 | 7 | 4 | – | – | C[C@H]1CN(C(=O)c2cncc(-c3ccc(C#N)cc3F)c2)Cc2cnc([C@@](C)(O)C(F)(F)F)n21 [Example 71]
16 | 5 | < 3 | – | 53 | C[C@H]1CN(C(=O)c2ccnn2C2CC2)Cc2onc([C@@](C)(O)C(F)(F)F)c21 [Example 109]
17 | 5 | 3 | – | – | C[C@H]1CN(C(=O)c2cc(-c3ccc(F)cc3C#N)nn2C)Cc2cnc([C@@](C)(O)C(F)(F)F)n21 [Example 61]
18 | 19 | 20 | – | – | C[C@H]1CN(C(=O)C2CCC(n3cc(Cl)cn3)CC2)Cc2cnc([C@@](C)(O)C(F)(F)F)n21 (stereo partly drawn) [Example 89]
19 | 23 | 27 | – | – | C[C@H]1CN(C(=O)[C@H]2CCN(c3ccc(C#N)cn3)C2)Cc2cnc([C@@](C)(O)C(F)(F)F)n21 [Example 92]
20 | 8 | 8 | – | – | C[C@H]1CN(C(=O)c2ccnc(C3CC3)c2)Cc2cnc([C@@](C)(O)C(F)(F)F)n21 [Example 96]
21 | 7 | 5 | – | – | C[C@H]1CN(C(=O)c2cc(-c3ccccc3)nn2C)Cc2nnc([C@@](C)(O)C(F)(F)F)n21 [Example 122, ((S)-5-methyl-3-((R)-1,1,1-trifluoro-2-hydroxypropan-2-yl)-5,6-dihydro-[1,2,4]triazolo[4,3-a]pyrazin-7(8H)-yl)(1-methyl-3-phenyl-1H-pyrazol-5-yl)methanone]
